Reference: the CombiSolv-Exp solvation set (Vermeire and Green 2021)

Test: solvent given as SMILES
[1] = in CC(C)CCCC(C)CCCC(C)CCCCC(C)CCCC(C)CCCC(C)C

CC#N
solvation free energy, 298 K (in Brc1cccc2ccccc12): -3.45 kcal/mol | solvation free energy, 298 K (in C1CCOC1): -4.3 kcal/mol | solvation free energy, 298 K (in C1COCCO1): -4.45 kcal/mol | solvation free energy, 298 K (in CC(=O)N(C)C): -4.8 kcal/mol | solvation free energy, 298 K (in CC(=O)OCc1ccccc1): -4.08 kcal/mol | solvation free energy, 298 K (in CC(C)=O): -3.83 kcal/mol | solvation free energy, 298 K [1]: -1.87 kcal/mol | solvation free energy, 298 K (in CCC(C)=O): -4.46 kcal/mol | solvation free energy, 298 K (in CCCCCC): -2.41 kcal/mol | solvation free energy, 298 K (in CCCCCCC): -2.28 kcal/mol | solvation free energy, 298 K (in CCCCCCCC): -2.17 kcal/mol | solvation free energy, 298 K (in CCCCCCCCCCCCCCCC): -2.04 kcal/mol | solvation free energy, 298 K (in CCCCCCCCO): -3.15 kcal/mol | solvation free energy, 298 K (in CCCCCl): -3.63 kcal/mol | solvation free energy, 298 K (in CCCCN(C=O)CCCC): -4.08 kcal/mol | solvation free energy, 298 K (in CCCCO): -3.55 kcal/mol | solvation free energy, 298 K (in CCCCOCCCC): -2.89 kcal/mol | solvation free energy, 298 K (in CCO): -3.96 kcal/mol | solvation free energy, 298 K (in CCOC(C)=O): -4.19 kcal/mol | solvation free energy, 298 K (in CCOCC): -3.63 kcal/mol | solvation free energy, 298 K (in CN1CCCCC1=O): -4.65 kcal/mol | solvation free energy, 298 K (in CN(C)C=O): -4.65 kcal/mol | solvation free energy, 298 K (in CNC(C)=O): -4.23 kcal/mol | solvation free energy, 298 K (in CO): -4.04 kcal/mol | solvation free energy, 298 K (in COC(C)(C)C): -3.67 kcal/mol | solvation free energy, 298 K (in COC(C)=O): -4.53 kcal/mol | solvation free energy, 298 K (in Cc1ccc(C)cc1): -3.44 kcal/mol | solvation free energy, 298 K (in ClC(Cl)(Cl)Cl): -3.03 kcal/mol | solvation free energy, 298 K (in ClC(Cl)Cl): -4.43 kcal/mol | solvation free energy, 298 K (in ClCCCl): -4.41 kcal/mol | solvation free energy, 298 K (in ClCCl): -4.71 kcal/mol | solvation free energy, 298 K (in Clc1ccccc1): -3.74 kcal/mol | solvation free energy, 298 K (in NC=O): -4.37 kcal/mol | solvation free energy, 298 K (in O): -3.92 kcal/mol | solvation free energy, 298 K (in O=C1CCCCC1): -4.3 kcal/mol | solvation free energy, 298 K (in [2H]O[2H]): -4.1 kcal/mol | solvation free energy, 298 K (in c1ccc2ncccc2c1): -3.98 kcal/mol

CC(C)CCCO
solvation free energy, 298 K (in CCCCCCCC): -4.84 kcal/mol | solvation free energy, 298 K (in CCCCCCCCCC): -4.78 kcal/mol

CCC(C)Cl (centres undefined)
solvation free energy, 298 K (in C1CCOC1): -4.34 kcal/mol | solvation free energy, 298 K (in C1CCOCC1): -4.24 kcal/mol | solvation free energy, 298 K (in C1COCCO1): -4.08 kcal/mol | solvation free energy, 298 K (in C=CCCCCCCCCCCCCCC): -3.46 kcal/mol | solvation free energy, 298 K (in CC(C)OC(C)C): -3.95 kcal/mol | solvation free energy, 298 K (in CCCCCC): -3.84 kcal/mol | solvation free energy, 298 K (in CCCCCl): -4.16 kcal/mol | solvation free energy, 298 K (in COC(C)(C)C): -4.08 kcal/mol

C=C(Cl)Cl
solvation free energy, 298 K (in CCO): -3.25 kcal/mol | solvation free energy, 298 K (in CO): -2.95 kcal/mol | solvation free energy, 298 K (in O): 0.22 kcal/mol

Cc1ccc(C=O)cc1
solvation free energy, 298 K (in O): -4.27 kcal/mol

OCC(O)C(O)C(O)C(O)CO (centres undefined)
solvation free energy, 298 K (in O): -23.6 kcal/mol

CCOc1ccc(C(=O)N(O)c2ccc(C)cc2)cc1
solvation free energy, 298 K (in O): -12.4 kcal/mol

Oc1cccc2cccnc12
solvation free energy, 298 K (in O): -6.06 kcal/mol

Clc1cc(-c2cc(Cl)c(Cl)c(Cl)c2)cc(Cl)c1Cl
solvation free energy, 298 K (in O): -4.11 kcal/mol

Clc1cc(Cl)c(-c2ccccc2)c(Cl)c1
solvation free energy, 298 K (in O): -2.16 kcal/mol

CC(=O)CC(C)=O
solvation free energy, 298 K (in C1CCCCC1): -4.89 kcal/mol | solvation free energy, 298 K (in CC(C)O): -5.03 kcal/mol | solvation free energy, 298 K (in CCC(C)O): -5.05 kcal/mol | solvation free energy, 298 K (in CCCO): -5.03 kcal/mol | solvation free energy, 298 K (in CCO): -5.43 kcal/mol | solvation free energy, 298 K (in O): -4.84 kcal/mol

Cc1cccc(O)c1
solvation free energy, 298 K [1]: -5.78 kcal/mol | solvation free energy, 298 K (in CCCCCC): -5.84 kcal/mol | solvation free energy, 298 K (in CCCCCCCCCCCCCCCC): -5.73 kcal/mol

CSc1ccccc1
solvation free energy, 298 K (in O): -2.73 kcal/mol

CC(C)CN(CC(C)C)N=O
solvation free energy, 298 K (in CC(C)CC(C)(C)C): -7.35 kcal/mol | solvation free energy, 298 K (in O): -4.84 kcal/mol

Nc1ccc2c(c1)C(=O)c1ccccc1C2=O
solvation free energy, 298 K (in O): -11.5 kcal/mol

Cc1ccc(O)cc1C
solvation free energy, 298 K (in CCCCCC): -6.89 kcal/mol | solvation free energy, 298 K (in CCCCCCC): -6.89 kcal/mol | solvation free energy, 298 K (in CCCCCCCC): -6.85 kcal/mol | solvation free energy, 298 K (in O): -6.51 kcal/mol

CC(C)S
solvation free energy, 298 K (in O): -0.7 kcal/mol
